Source: BindingDB's records for doi:10.1016/s0969-2126(98)00113-0 (University of Texas At Dallas, 1998)

What was measured:
[1] = biological target: Mitogen-activated protein kinase 14 (Homo sapiens, UniProt Q16539); assay: Kinase Inhibition Assay; conditions: pH 7.5; 37 °C
[2] = biological target: Mitogen-activated protein kinase 1 (Rattus norvegicus, UniProt P63086); assay: Kinase Inhibition Assay; conditions: pH 7.5; 37 °C
Mitogen-activated protein kinase 1, sequence (P63086 whole entry): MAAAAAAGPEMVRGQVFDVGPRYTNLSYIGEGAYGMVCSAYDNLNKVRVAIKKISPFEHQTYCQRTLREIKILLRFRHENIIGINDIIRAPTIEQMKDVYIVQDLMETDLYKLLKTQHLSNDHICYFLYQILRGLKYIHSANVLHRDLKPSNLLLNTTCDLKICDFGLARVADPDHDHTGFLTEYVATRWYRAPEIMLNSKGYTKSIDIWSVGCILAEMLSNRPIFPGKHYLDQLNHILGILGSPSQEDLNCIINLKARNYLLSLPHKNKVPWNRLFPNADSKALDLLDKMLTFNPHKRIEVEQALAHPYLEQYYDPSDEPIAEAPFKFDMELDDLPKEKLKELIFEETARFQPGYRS

Mitogen-activated protein kinase 14, sequence (Q16539 whole entry): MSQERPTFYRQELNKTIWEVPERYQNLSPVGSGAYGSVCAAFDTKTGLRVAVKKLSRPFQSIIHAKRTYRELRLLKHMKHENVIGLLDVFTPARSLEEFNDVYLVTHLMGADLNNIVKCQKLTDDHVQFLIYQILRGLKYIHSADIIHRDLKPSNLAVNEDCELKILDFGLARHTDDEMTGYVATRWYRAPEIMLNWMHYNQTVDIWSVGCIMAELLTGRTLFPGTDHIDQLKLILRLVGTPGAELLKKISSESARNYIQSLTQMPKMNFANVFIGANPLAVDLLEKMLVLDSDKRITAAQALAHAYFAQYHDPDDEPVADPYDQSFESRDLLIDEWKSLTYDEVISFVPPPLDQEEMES

| IC50 [1] [µM] | Compound | IC50 [2] [µM] |
| --- | --- | --- |
| > 100 | Cn1cnc2c(NCc3ccccc3)nc(NCCO)nc21 [2,6,9-Trisubstituted purine deriv. 26] | 27 |
| – | C[S+]([O-])c1ccc(-c2nc(-c3ccncc3)c(-c3ccc(F)cc3)[nH]2)cc1 (stereo not drawn) [4-{4-(4-fluorophenyl)-2-[4-(methylsulfinyl)phenyl]-1H-imidazol-5-yl}pyridine] | > 1000 |
